Measured values reported in ChEMBL document CHEMBL1201862, “PubChem BioAssay data set” (2004).
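Briefly, cells in 96-well plates were exposed to five compound concentrations for 48 h, and endpoints were estimated by linear interpolation. Here, GI50 denotes the concentration required for 50% inhibition of growth.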 Activity calls are given as the source filed them. Rule as the data show it: active = GI50 up to about 1.1 µM and inactive = higher.

Legend:
Assay in all cases: NCI anticancer screen, dose series, 48 h
K562 = system: K562
OVCAR-4 = system: OVCAR-4
RXF 393 = system: RXF 393
HOP-62 = system: HOP-62
HOP-92 = system: HOP-92
OVCAR-5 = system: OVCAR-5
Malme-3M = system: Malme-3M
NCI-H226 = system: NCI-H226
LXFL 529 = system: LXFL 529
HCC 2998 = system: HCC 2998
CAKI-1 = system: CAKI-1
U-251 = system: U-251
KM12 = system: KM12
ACHN = system: ACHN
DMS-114 = system: DMS-114
UACC-62 = system: UACC-62
SF-268 = system: SF-268
SW-620 = system: SW-620
SK-MEL-28 = system: SK-MEL-28
OVCAR-3 = system: OVCAR-3
SNB-19 = system: SNB-19
A549 = system: A549
HCT-116 = system: HCT-116
SK-MEL-5 = system: SK-MEL-5
IGROV-1 = system: IGROV-1
SNB-75 = system: SNB-75
786-0 = system: 786-0
HL-60 = system: HL-60
LOX IMVI = system: LOX IMVI
M14 = system: M14
SN12C = system: SN12C
SR = system: SR
SK-OV-3 = system: SK-OV-3
UO-31 = system: UO-31
NCI-H23 = system: NCI-H23
MOLT-4 = system: MOLT-4
TK-10 = system: TK-10
SK-MEL-2 = system: SK-MEL-2
SNB-78 = system: SNB-78
HCT-15 = system: HCT-15
KM-20L2 = system: KM-20L2
NCI-H460 = system: NCI-H460
A498 = system: A498
HT-29 = system: HT-29
SF-539 = system: SF-539
SF-295 = system: SF-295
COLO 205 = system: COLO 205
M19-MEL = system: M19-MEL
UACC-257 = system: UACC-257
RPMI-8226 = system: RPMI-8226
CCRF-CEM = system: CCRF-CEM

Q: What does the source list for `COC1CCCc2c(OC(C)=O)ccc(OC(C)=O)c21` (stereo not drawn)?
A: GI50 (K562): > 100 µM (inactive); GI50 (OVCAR-4): 35 µM (inactive); GI50 (RXF 393): > 100 µM (inactive); GI50 (HOP-62): > 100 µM (inactive); GI50 (HOP-92): 19.6 µM (inactive); GI50 (OVCAR-5): > 100 µM (inactive); GI50 (Malme-3M): > 100 µM (inactive); GI50 (NCI-H226): > 100 µM (inactive); GI50 (LXFL 529): > 100 µM (inactive); GI50 (HCC 2998): > 100 µM (inactive); GI50 (CAKI-1): > 100 µM (inactive); GI50 (U-251): > 100 µM (inactive); GI50 (KM12): > 100 µM (inactive); GI50 (ACHN): > 100 µM (inactive); GI50 (DMS-114): > 100 µM (inactive); GI50 (UACC-62): > 100 µM (inactive); GI50 (SF-268): > 100 µM (inactive); GI50 (SW-620): > 100 µM (inactive); GI50 (SK-MEL-28): > 100 µM (inactive); GI50 (OVCAR-3): > 100 µM (inactive); GI50 (SNB-19): > 100 µM (inactive); GI50 (A549): > 100 µM (inactive); GI50 (HCT-116): > 100 µM (inactive); GI50 (SK-MEL-5): > 100 µM (inactive); GI50 (IGROV-1): > 100 µM (inactive); GI50 (SNB-75): > 100 µM (inactive); GI50 (786-0): > 100 µM (inactive); GI50 (HL-60): > 100 µM (inactive); GI50 (LOX IMVI): > 100 µM (inactive); GI50 (M14): > 100 µM (inactive); GI50 (SN12C): > 100 µM (inactive); GI50 (SR): > 100 µM (inactive); GI50 (SK-OV-3): > 100 µM (inactive); GI50 (UO-31): > 100 µM (inactive); GI50 (NCI-H23): > 100 µM (inactive); GI50 (MOLT-4): > 100 µM (inactive); GI50 (TK-10): > 100 µM (inactive); GI50 (SK-MEL-2): > 100 µM (inactive); GI50 (SNB-78): 36 µM (inactive); GI50 (HCT-15): > 100 µM; GI50 (KM-20L2): > 100 µM (inactive)

Q: With `CCCCOP(=O)(OCCCC)/C(C#N)=C/c1ccco1` as the molecule, how does the GI50 (NCI-H460) read?
A: > 100 µM (inactive)

Q: What about the GI50 (OVCAR-4) of the same molecule?
A: 91.6 µM (inactive)

Q: And the GI50 (RXF 393)?
A: 82.8 µM (inactive)

Q: What about the GI50 (HOP-62) of the same molecule?
A: > 100 µM (inactive)

Q: What about the GI50 (HOP-92) of the same molecule?
A: 45.3 µM (inactive)

Q: And the GI50 (OVCAR-5)?
A: > 100 µM (inactive)

Q: And the GI50 (Malme-3M)?
A: 94.2 µM (inactive)

Q: What about the GI50 (LXFL 529) of the same molecule?
A: > 100 µM (inactive)

Q: What about the GI50 (U-251) of the same molecule?
A: > 100 µM (inactive)

Q: What about the GI50 (A498) of the same molecule?
A: 77.8 µM (inactive)

Q: What about the GI50 (KM12) of the same molecule?
A: 52.6 µM (inactive)

Q: What about the GI50 (ACHN) of the same molecule?
A: 95.7 µM (inactive)

Q: What about the GI50 (DMS-114) of the same molecule?
A: 64.9 µM (inactive)

Q: And the GI50 (UACC-62)?
A: > 100 µM (inactive)

Q: What about the GI50 (SF-268) of the same molecule?
A: 45.2 µM (inactive)

Q: And the GI50 (SK-MEL-28)?
A: > 100 µM (inactive)

Q: What about the GI50 (OVCAR-3) of the same molecule?
A: 34.7 µM (inactive)

Q: And the GI50 (SNB-19)?
A: 94.6 µM (inactive)

Q: And the GI50 (HCT-116)?
A: > 100 µM (inactive)

Q: And the GI50 (IGROV-1)?
A: > 100 µM (inactive)

Q: And the GI50 (SNB-75)?
A: 27.2 µM (inactive)

Q: What about the GI50 (HL-60) of the same molecule?
A: 22.8 µM (inactive)

Q: And the GI50 (M14)?
A: > 100 µM (inactive)

Q: What about the GI50 (HT-29) of the same molecule?
A: > 100 µM (inactive)

Q: What about the GI50 (SF-539) of the same molecule?
A: > 100 µM (inactive)

Q: What about the GI50 (SK-OV-3) of the same molecule?
A: > 100 µM (inactive)

Q: And the GI50 (SF-295)?
A: 51.3 µM (inactive)

Q: And the GI50 (COLO 205)?
A: > 100 µM (inactive)

Q: And the GI50 (UO-31)?
A: 25.8 µM (inactive)

Q: What about the GI50 (NCI-H23) of the same molecule?
A: > 100 µM (inactive)

Q: And the GI50 (M19-MEL)?
A: > 100 µM (inactive)

Q: And the GI50 (UACC-257)?
A: 40.1 µM (inactive)

Q: And the GI50 (SK-MEL-2)?
A: > 100 µM (inactive)

Q: What about the GI50 (SNB-78) of the same molecule?
A: 43.9 µM (inactive)

Q: And the GI50 (RPMI-8226)?
A: 45.2 µM (inactive)

Q: And the GI50 (CCRF-CEM)?
A: 12.4 µM (inactive)

Q: And the GI50 (KM-20L2)?
A: > 100 µM (inactive)
